For one data set, the system named is HeLa cells. The data set is described as follows: Effect on HeLa cells viability in vitro. The data set is classed as cell-based. As to conditions: Homo sapiens; for activity at 0.05 µg/mL: dose 50 ng/ml; for activity at 0.1 µg/mL: dose 100 ng/ml; for activity at 0.2 µg/mL: dose 200 ng/ml; for activity at 0.4 µg/mL: dose 400 ng/ml. The procedure:
(§1) The new glycosides were tested against HeLa cells in vitro (time of exposure to the drugs: 24 hours), and on L 1210 and P 388 leukemia in mice in comparison with daunomycin.
^(a) HeLa cells were exposed to the drugs for 24 hours, then plated.
Number of colonies was evaluated 5 days later.
^(b) % over untreated controls.

The nature of data set [1]: Toxic deaths in leukemia-bearing mice. As to conditions: for Toxic deaths: intraperitoneally on day 1, macroscopic autopsy findings. It is filed as in vivo. How it is done:
as §1

The test system of data set [2] is Bacillus subtilis ATCC 6633. The data set can be described thus: MIC, standard tube dilution procedure. As to conditions: ATCC6633, in vitro. It is filed as cell-based. How it is done:
(§2) The "in vitro" minimum inhibitory concentrations (MIC) of glycosides A, B, C and D were determined for certain microorganisms using the standard tube dilution procedure and are reported in Table 6.

For a further data set, the system named is Escherichia coli B. The data set is described as follows: MIC, standard tube dilution procedure. The data set is classed as cell-based. As to conditions: in vitro. How it is done:
as §2

Another data set deals with Sarcina lutea ATCC 9341. The data set is described as follows: MIC, standard tube dilution procedure. The data set is classed as cell-based. As to conditions: Micrococcus luteus, ATCC9341, in vitro. The procedure:
as §2

The test system of data set [3] is Staphylococcus aureus 153. The data set is described as follows: MIC, standard tube dilution procedure. It is filed as cell-based. As to conditions: in vitro. The procedure: as §2
In data set [4] the test system is Staphylococcus aureus 209 P. The data set can be described thus: MIC, standard tube dilution procedure. It is filed as cell-based. Particulars: in vitro. The procedure:
as §2

A further data set concerns P 388 leukemia. The data set can be described thus: Effect against P 388 leukemia in mice. The data set is classed as in vivo. The procedure:
as §1
^(a) Mice were treated intraperitoneally on day 1 after tumor cell

Where [5] appears, read: 24 h, read-out: No. of colonies, % over untreated controls.
Setting [6] is: 24 h, HeLa cells, 24 hours exposure, colonies evaluated 5 days later (Table 7), read-out: ID50 (the source's name).
The mark [7] stands for this setting: 24 h, HeLa cells, 24 hours exposure, read-out: ID50 (the source's name).
The mark [8] stands for this setting: 24 hours exposure, read-out: No. of colonies, % over untreated controls.

Broadly, the MIC is the least concentration at which growth counts as inhibited. Read a high MIC as a less susceptible organism.

Structures are written as SMILES. Converted amounts (≈) assume the structure as drawn. Read-outs that look alike come from different tables or passages of the source.

With `COc1cccc2c1C(=O)c1c(O)c3c(c(O)c1C2=O)C[C@@](O)(C(C)=O)C[C@@H]3O[C@H]1C[C@H](N)[C@H](O)[C@H](C)O1` [Daunomycin, reference compound], in the data set on HeLa cells (24 h, read-out: ID50), the IC50 fell in the range of 0.006 to 0.007 µg/mL (≈ 0.0114 to 0.0133 µM). In addition, in the data set with HeLa cells (setting [5]), the activity at 0.00312 µg/mL was in the range of 71 to 80% and the activity at 0.00625 µg/mL fell in the range of 48 to 66%. The Toxic deaths in data set [1] (6.6 mg/kg) is recorded as 14/26.
Take `COc1cccc2c1C(=O)c1c(cc3c(c1O)[C@@H](O[C@H]1C[C@H](N)[C@H](O)[C@H](C)O1)C[C@](O)(C(C)=O)C3)C2=O` [Glycoside C, 11-deoxydaunomycin]: the MIC in data set [2] was determined as 50 µg/mL (≈ 97.7 µM); against Escherichia coli B, 25 µg/mL (≈ 48.9 µM); against Sarcina lutea ATCC 9341, 12.5 µg/mL (≈ 24.4 µM); in data set [3], 250 µg/mL (≈ 489 µM); in data set [4], 62 µg/mL (≈ 121 µM). Moreover, the IC50 was 0.054 µg/mL (≈ 0.106 µM) in the data set on HeLa cells (setting [6]) and 0.05 µg/mL (≈ 0.0977 µM) in the data set with HeLa cells (setting [7]). Moreover, in the data set on HeLa cells (setting [8]), the activity at 0.05 µg/mL was 54%. Also, the activity at 0.1 µg/mL in the data set with HeLa cells (setting [8]) is 44%. Further, the activity at 0.2 µg/mL in the data set on HeLa cells (setting [8]) came to 3%. Also, the values for the Toxic deaths in data set [1] (100 mg/kg) and in data set [1] (150 mg/kg) were 3/8 and 3/19, respectively.
In the case of `COc1cccc2c1C(=O)c1c(cc3c(c1O)[C@@H](O[C@H]1C[C@H](N)[C@H](O)[C@H](C)O1)C[C@](O)(C(C)O)C3)C2=O` (stereo partly drawn) [Glycoside B, 11-deoxy-13-dihydrodaunomycin], the MIC in data set [2] came out at 100 µg/mL (≈ 195 µM); against Escherichia coli B it was 100 µg/mL (≈ 195 µM); in the data set on Sarcina lutea ATCC 9341 it was 100 µg/mL (≈ 195 µM); in data set [3] it was 1000 µg/mL (≈ 1950 µM); in data set [4] it was 1000 µg/mL (≈ 1950 µM). Also, in the data set with HeLa cells (setting [7]), the IC50 came out at 0.44 µg/mL (≈ 0.857 µM). Besides, the activity at 0.4 µg/mL in the data set with HeLa cells (setting [8]) was determined as 66%. Moreover, in the data set with HeLa cells (dose 800 ng/ml, 24 hours exposure, read-out: No. of colonies, % over untreated controls), the activity at 0.8 µg/mL amounted to 20%. Further, the activity at 1.6 µg/mL with HeLa cells (dose 1600 ng/ml, 24 hours exposure, read-out: No. of colonies, % over untreated controls) is 0%. In addition, in data set [1] (500 mg/kg), the Toxic deaths is on record as 2/2.
With `COc1cccc2c1C(=O)c1c(cc3c(c1O)[C@@H](O[C@H]1C[C@H](N)[C@H](O)[C@H](C)O1)C[C@](O)(C(=O)CO)C3)C2=O` [Glycoside A, 11-deoxyadriamycin], the MIC in data set [2] was 100 µg/mL (≈ 190 µM); in the data set on Escherichia coli B it was 50 µg/mL (≈ 94.8 µM); in the data set on Sarcina lutea ATCC 9341 it was 100 µg/mL (≈ 190 µM); in data set [3], 500 µg/mL (≈ 948 µM); in data set [4], 125 µg/mL (≈ 237 µM). The IC50 is 0.105 µg/mL (≈ 0.199 µM) in the data set on HeLa cells (setting [6]) and 0.1 µg/mL (≈ 0.19 µM) with HeLa cells (setting [7]). Also, the activity at 0.025 µg/mL in the data set with HeLa cells (dose 25 ng/ml, 24 hours exposure, read-out: No. of colonies, % over untreated controls) was determined as 74%. Besides, the activity at 0.05 µg/mL in the data set with HeLa cells (setting [8]) came out at 73%. For the same molecule, the activity at 0.1 µg/mL in the data set on HeLa cells (setting [8]) amounted to 63%. Besides, the activity at 0.2 µg/mL in the data set with HeLa cells (setting [8]) was 1%. Also, in the data set on P 388 leukemia (at the tolerated dose), the “Antitumor activity compared with daunomycin (in words)” value is listed as “greater than that of daunomycin”. The “Activity against P 338 leukemia (in words)” value in the data set on P 388 leukemia (dose of 66 mg/kg) is “active”. The “Toxicity (in words)” value in data set [1] (dose of 100 mg/kg, mice) is reported as “toxic”.
Take `CC[C@]1(O)Cc2cc3c(c(O)c2[C@@H](O[C@H]2C[C@H](N)[C@H](O)[C@H](C)O2)C1)C(=O)c1c(OC)cccc1C3=O` [Glycoside D, 11-deoxy-13-deoxo-daunomycin]: the MIC in data set [2] is 100 µg/mL (≈ 201 µM); in the data set with Escherichia coli B, 50 µg/mL (≈ 100 µM); against Sarcina lutea ATCC 9341 it was 25 µg/mL (≈ 50.2 µM); in data set [3], 1000 µg/mL (≈ 2010 µM); in data set [4], 250 µg/mL (≈ 502 µM). Further, the IC50 in the data set with HeLa cells (setting [7]) stood at 0.22 µg/mL (≈ 0.442 µM). Moreover, the activity at 0.1 µg/mL in the data set on HeLa cells (setting [8]) was found to be 109%. Moreover, in the data set with HeLa cells (setting [8]), the activity at 0.2 µg/mL was found to be 53%. Further, the activity at 0.4 µg/mL in the data set on HeLa cells (setting [8]) is 0%. Besides, the Toxic deaths in data set [1] (125 mg/kg) and in data set [1] (250 mg/kg) was 5/5 throughout.

These data come from patent US4411834A, “Preparation of II-deoxy anthracycline antibiotics” (Farmitalia Carlo Erba, S.p.A., priority 1978, dated 1983).
